Where two headings read alike, the source gives them in different places.
Tests used:
ICR mice [1] = experiment: Effects of Olive-C60 on relevant enzyme activities in the second course (serum); type: in vivo; conditions: 18th day, Olive-C60 intragastrically with CTX, or CTX alone, versus blank control group
Method: (§1) Animal models: ICR mice aged 4-5 weeks were selected and assigned randomly into 5 groups with 6 mice per group.
(§2) The second course started 20 days after the day when the first course was initiated and mice were basically recovered. In other words, the 21st day of the first course was marked as the first day of the second course. Thereafter, intraperitoneal injection of CTX was conducted once a day for 5 consecutive days; and Olive-C60 or olive was administered intragastrically or intraperitoneally. 5 days later, no drug was given; and only observation or sampling was conducted.
Effects of Olive-C60 on relevant enzyme activities in the second course on an intravital level: On the 18th day of the second course of the experiment, whole blood was taken from orbits, serums were obtained by centrifugation, and different relevant enzyme activities were tested.

ICR mice [2] = experiment: Effects of Olive-C60 on blood biochemical indexes in the second course (serum); type: in vivo; conditions: 18th day, versus blank control group
Method: as §1, §2
Effects of Olive-C60 on blood biochemical indexes in the second course on an intravital level: On the 18th day of the second course of the experiment, whole blood was taken from orbits, serums were obtained by centrifugation, and blood biochemical indexes were tested.

ICR mice [3] = conditions: second course
Method: as §1
100 μL of normal saline was administered intragastrically so as to eliminate the difference influenced by intragastric stimulation on mice.
(§3) Blank control group: The CTX solution injected in the experimental group was replaced with equal volumes of normal saline, and normal saline of the volume equal to 100 μL was administered intragastrically or intraperitoneally to replace Olive-C60 or olive oil.
as §2
Effects of Olive-C60 on myelosuppression in the second course on an intravital level: blood (13 μl) was taken from orbits of mice on the 4th day, the 7th day, the 10th day and the 17th day of the second course respectively, and was placed in a 3 ml centrifuge tube, and the blood routine examination was conducted using a blood cell automatic analyzer, wherein the main indexes related to myelosuppression are white blood cell counts (WBC), platelet counts (PLT), red blood cell counts (RBC) and hemoglobin determination (HGB). Meanwhile, changes in the weight of mice were monitored.

ICR mice [4] = experiment: Protection on myelosuppression caused by CTX in H22 tumor mice (blood routine examination); type: in vivo
Method: Blank control group: The drugs injected either intragastrically or intraperitoneally in the experimental groups were replaced with equal volumes of normal saline.
GFNC experimental group: Mice were injected with a GFNC aqueous solution (1 mM) via caudal veins at a dosage of 0.004 mmol of GFNC/kg of body weight of mice.
CTX+GFNC experimental group: Mice were injected intraperitoneally with a CTX solution at a dosage of 60 mg/kg of body weight of mice, and GFNC solution was injected intravenously at a dosage of 0.004 mmol of GFNC/kg of body weight of mice.
Injection of drugs was initiated on the 7th day after tumor inoculation, which was marked as the first day of the experiment. Intraperitoneal injection of CTX or intravenous injection of GFNC was conducted once a day for 5 consecutive days; thereafter, blood (20 μl) was taken respectively from orbits of mice on the 4th day, the 7th day, the 10th day, the 14th day and the 17th day, and was placed in a 3 ml centrifuge tube, and the blood routine examination was conducted using a blood cell automatic analyzer, wherein the main indexes related to myelosuppression are white blood cell counts (WBC), platelet counts (PLT), hemoglobin determination (HGB) and monocyte proportion (MO %).
Animal model: ICR mice aged 4-5 weeks were selected and assigned randomly into 4 groups with 6 mice per group. […]

ICR mice [5] = conditions: first course
Method: as §1, §3
After ICR mice aged 4-5 weeks were bred in a laboratory, CTX solutions were injected on the seventh day when their conditions were stable, which was marked as the first day of the experiment. Intraperitoneal injection of CTX was conducted once a day for 5 consecutive days; meanwhile, Olive-C60 or Olive or the normal saline was administered intragastrically or intraperitoneally. 5 days later, no injection was made, and only observation or sampling was conducted.
Effects of Olive-C60 on myelosuppression in the first course on an intravital level: blood (13 μl) was taken from orbits of mice on the 4th day, the 7th day, the 10th day and the 17th day respectively, and was placed in a 3 ml centrifuge tube, and the blood routine examination was conducted using a blood cell automatic analyzer, wherein the main indexes related to myelosuppression are white blood cell counts (WBC), platelet counts (PLT), red blood cell counts (RBC) and hemoglobin determination (HGB). Meanwhile, changes in the weight of mice were monitored.

ICR mice [6] = experiment: Influence of GFNC on therapeutic effects of CTX on tumors and toxic experiment
Method: Blank control group: The injected drugs in the experimental groups were replaced with equal volumes of normal saline.
Metallofullerene derivative (GFNC) experimental group: Mice were injected intravenously with a GFNC solution at a dosage of 0.04 mmol of Gd^3+/kg of body weight of mice.
CTX+GFNC experimental group: Mice were injected intraperitoneally with a CTX solution at a dosage of 60 mg/kg of body weight of mice, and GFNC solution was injected intravenously at a dosage of 0.04 mmol of Gd^3+/kg of body weight of mice.
Injection of drugs was initiated on the 7th day after tumor inoculation, which was marked as the first day of the experiment. Intraperitoneal injection of CTX or intravenous injection of GFNC was conducted once a day for 5 consecutive days, and weights of mice and tumor diameters were measured every two days; thereafter, on the 17th day, mice were fetched and their eye balls were removed, and blood was taken respectively from their orbits; then, the blood was placed in a 5 ml centrifuge tube where it was centrifuged for 15 minutes at a rotational speed of 3,500 rpm; after that, a resultant serum was transferred into a 200 μL centrifuge tube, and blood biochemical indexes (e.g., ALT, ALP, AST, BUN, LDH and UA) of the mice were detected in a blood biochemical instrument; after mice were sacrificed by cervical dislocation, their main tissues and organs (hearts, livers, spleens, lungs and kidneys) were taken and weighed, and were then soaked in a 4% formalin solution; thereafter, histopathological section was conducted, and then, H&E staining was conducted. The blank control group, the cyclophosphamide (CTX) experimental group and the metallofullerene experimental group (GFNC) were processed in the same way for comparison.

[7] = CTX 60 mg/kg i.p. x5 days alone
[8] = 17th day, CTX alone or CTX+GFNC

With `O=P1(N(CCCl)CCCl)NCCCO1` (stereo not shown) [CTX, cyclophosphamide] the “level of MDA” value (ICR mice [1]) was “higher than that of mice in the blank control group”, the “level of uric acid in the serum” value (ICR mice [2]) was “far lower than that in the serum of mice in the blank control group” and the “white blood cells on the 17th day” value (ICR mice [3]; 17th day, CTX alone or with Olive-C60) was “still below their normal levels”. The “white blood cells, red blood cells, platelets and hemoglobin compared with the blank control group” value (ICR mice [3]; [7]) was “varying degrees of reduction”, the weight of mice (ICR mice [3]; CTX alone or with Olive-C60) was “differs greatly from that of the mice in other groups” and the weight of mice (ICR mice [3]; CTX alone or with Olive-C60, listed as cyclophosphamide) was “lower than that of the mice in any other groups”. The monocytes (ICR mice [4]; CTX 60 mg/kg i.p. x5 days alone or with 0.004 mmol/kg material intravenously x5 days) was “abnormal hyperplasia”, the “white blood cells, platelets and hemoglobin” value (ICR mice [4]; H22 tumor mice, CTX 60 mg/kg i.p. x5 days alone (versus blank control) or with 0.004 mmol/kg material intravenously x5 days (versus CTX group)) was “varying degrees of reduction” and the “white blood cells, red blood cells, platelets and hemoglobin compared with the blank control group” value (ICR mice [5]; [7]) was “varying degrees of reduction”. The weight of mice (ICR mice [5]; CTX 60 mg/kg i.p. x5 days, alone or with Olive-C60 100 μL (1,500 ppm), after termination of CTX injection / later stage) was “lower than that of the mice in any other groups”, the “histopathological sections of main tissues and organs (H&E staining)” value (ICR mice [6]; [8]) was “damaged to a certain extent” and the “pathological sections of tumor sites: cells of tumor tissues” value (ICR mice [6]; [8]) was “die in great quantity”. For the same molecule, the weight of mice (ICR mice [6]; CTX 60 mg/kg i.p. x5 days alone or with GFNC 0.04 mmol of Gd3+/kg intravenously) was “drops obviously in the initial stage of drug injection”.

From patent US20190038667A1, “APPLICATION OF FULLERENE/METAL-FULLERENE FOR PREPARING PHARMACEUTICAL PRODUCT” (BEIJING FU NA KANG BIOTECHNOLOGY CO., LTD., priority 2016, published 2019)
